Measured values from patent US9868692B2, “Compounds and compositions for intracellular delivery of therapeutic agents” (MODERNATX, Inc., priority 2015, dated 2018).

Test system: luciferase (Luc) mRNA expression
Experiment: Luc expression (total flux, bioluminescence) after intravenous administration to mice
Format: in vivo
Details: i.v., 0.5 mg/kg, 3, 6 and 24 hours, versus other compositions
Method: In order to monitor how effectively various nanoparticle compositions deliver therapeutic and/or prophylactics to targeted cells, different nanoparticle compositions including a particular therapeutic and/or prophylactic (for example, a modified or naturally occurring RNA such as an mRNA) are prepared and administered to rodent populations. Mice are intravenously, intramuscularly, intraarterially, or intratumorally administered a single dose including a nanoparticle composition with a formulation such as those provided in Example 3. In some instances, mice may be made to inhale doses. Dose sizes may range from 0.001 mg/kg to 10 mg/kg, where 10 mg/kg describes a dose including 10 mg of a therapeutic and/or prophylactic in a nanoparticle composition for each 1 kg of body mass of the mouse. A control composition including PBS may also be employed.
Upon administration of nanoparticle compositions to mice, dose delivery profiles, dose responses, and toxicity of particular formulations and doses thereof can be measured by enzyme-linked immunosorbent assays (ELISA), bioluminescent imaging, or other methods. For nanoparticle compositions including mRNA, time courses of protein expression can also be evaluated. Samples collected from the rodents for evaluation may include blood, sera, and tissue (for example, muscle tissue from the site of an intramuscular injection and internal tissue); sample collection may involve sacrifice of the animals.
The efficacy of the nanoparticle compositions presented in Table 1A was evaluated with a bioluminescence study. Formulations were administered intravenously to mice (n=6) at a dosage of 0.5 mg/kg (mpk) and bioluminescence measured at 3, 6, and 24 hour time points. The standard MC3 formulation and, in some instances, a control (e.g., a PBS control) were evaluated for comparison. […] In general, flux decreased as time progressed to less than 10% of the initial flux.
The total flux (measured by area under the curve, AUC) induced by administration of a formulation including a given lipid relative to that induced by administration of a formulation including MC3 was also measured for several lipids.

SMILES	flux at all time points measured
CCCCCCCCCOC(=O)CCCCCCCN(CCO)CCCCCCCC(=O)OC(CCC)CCC [Compound 58, heptan-4-yl 8-((2-hydroxyethyl)(8-(nonyloxy)-8-oxooctyl)amino) octanoate]	significantly lower flux
CCCCCCCCCCCOC(=O)CCCCCN(CCO)CCCCCC(=O)OCCCCCCCCCCC [Compound 141, Diundecyl 6,6′-((2-hydroxyethyl)azanediyl)dihexanoate]	significantly lower flux
CCCCCCCCCOC(=O)CCCCCCCN(CCO)CCCCCCCC(=O)OC(C)(C)C [Compound 158, tert-Butyl 8-((2-hydroxyethyl)(8-(nonyloxy)-8-oxooctyl)amino)octanoate]	significantly lower flux
CCCCCCCCCOC(=O)CCCCCCCN(CCO)CCCCCCCC(=O)OC(CCCC)CCCC [Compound 57, nonan-5-yl 8-((2-hydroxyethyl)(8-(nonyloxy)-8-oxooctyl)amino) octanoate]	significantly lower flux
CCCCCCCCCOC(=O)CCCCCCCN(CCCCCCCC(=O)OC(CCCCCCCC)CCCCCCCC)CCOCCN(C)C [Compound 17, Heptadecan-9-yl 8-((2-(2-(dimethylamino)ethoxy)ethyl)(8-(nonyloxy)-8-oxooctyl)amino)octanoate]	significantly lower flux
CCCCCCCCCOC(=O)CCCCCCCN(CCCCCCCC(=O)OC(CCCCCCCC)CCCCCCCC)CCC(=O)O [Compound 125, 3-((8-(Heptadecan-9-yloxy)-8-oxooctyl)(8-(nonyloxy)-8-oxooctyl)amino)propanoic acid]	significantly lower flux
CCCCCCCCCCCCN(CCO)CCCCCCCCCCCC(=O)OC [Compound 137, Methyl 12-(dodecyl(2-hydroxyethyl)amino)dodecanoate]	significantly lower flux
CCCCCCCC/C=C\COC(=O)CCCCCN(CCO)CCCCCC(=O)OC/C=C\CCCCCCCC [Compound 140, Di((Z)-undec-2-en-1-yl) 6,6′-((2-hydroxyethyl)azanediyl)dihexanoate]	significantly lower flux
CCCCCCCCCOC(=O)CCCCCCCN(CCCCCCCC(=O)OC(CCCCCCCC)CCCCCCCC)CCOC(C)=O [Compound 9, Heptadecan-9-yl 8-((2-acetoxyethyl)(8-(nonyloxy)-8-oxooctyl)amino) octanoate]	significantly lower flux
CCCCCCCCCOC(=O)CCCCCCCN(CCO)CCCCCCCC(=O)OC(CC)CC [Compound 59, nonyl 8-((2-hydroxyethyl)(8-oxo-8-(pentan-3-yloxy)octyl)amino) octanoate]	significantly lower flux

Test system: not listed separately
Experiment: Particle size, polydispersity index (and zeta potential) of nanoparticle compositions, Zetasizer Nano ZS
Format: physicochemical
Details: Table 1A; lipid:DSPC:cholesterol:PEG-DMG 50:10:38.5:1.5 mol %, mRNA
Text: Nanoparticle compositions may be characterized by a variety of methods. For example, microscopy (e.g., transmission electron microscopy or scanning electron microscopy) may be used to examine the morphology and size distribution of a nanoparticle composition. Dynamic light scattering or potentiometry (e.g., potentiometric titrations) may be used to measure zeta potentials. Dynamic light scattering may also be utilized to determine particle sizes. Instruments such as the Zetasizer Nano ZS (Malvern Instruments Ltd, Malvern, Worcestershire, UK) may also be used to measure multiple characteristics of a nanoparticle composition, such as particle size, polydispersity index, and zeta potential.
A Zetasizer Nano ZS (Malvern Instruments Ltd, Malvern, Worcestershire, UK) can be used to determine the particle size, the polydispersity index (PDI) and the zeta potential of the nanoparticle compositions in 1×PBS in determining particle size and 15 mM PBS in determining zeta potential.

SMILES	Size (nm)
CCCCCCCCCCCCN(CCO)CCCCCCCCCCCC(=O)OC [Compound 137, Methyl 12-(dodecyl(2-hydroxyethyl)amino)dodecanoate]	184.4 nm

Test system: not listed separately
Experiment: Encapsulation efficiency of RNA, QUANT-IT RIBOGREEN RNA assay
Format: physicochemical
Details: Table 1A formulations
Text: The efficiency of encapsulation of a therapeutic and/or prophylactic describes the amount of therapeutic and/or prophylactic that is encapsulated or otherwise associated with a nanoparticle composition after preparation, relative to the initial amount provided. The encapsulation efficiency is desirably high (e.g., close to 100%). The encapsulation efficiency may be measured, for example, by comparing the amount of therapeutic and/or prophylactic in a solution containing the nanoparticle composition before and after breaking up the nanoparticle composition with one or more organic solvents or detergents. Fluorescence may be used to measure the amount of free therapeutic and/or prophylactic (e.g., RNA) in a solution. For the nanoparticle compositions described herein, the encapsulation efficiency of a therapeutic and/or prophylactic may be at least 50%, for example 50%, 55%, 60%, 65%, 70%, 75%, 80%, 85%, 90%, 91%, 92%, 93%, 94%, 95%, 96%, 97%, 98%, 99%, or 100%. In some embodiments, the encapsulation efficiency may be at least 80%. In certain embodiments, the encapsulation efficiency may be at least 90%.
For nanoparticle compositions including an RNA, a QUANT-IT™ RIBOGREEN® RNA assay (Invitrogen Corporation Carlsbad, Calif.) can be used to evaluate the encapsulation of an RNA by the nanoparticle composition. The samples are diluted to a concentration of approximately 5 μg/mL in a TE buffer solution (10 mM Tris-HCl, 1 mM EDTA, pH 7.5). 50 μL of the diluted samples are transferred to a polystyrene 96 well plate and either 50 μL of TE buffer or 50 μL of a 2% Triton X-100 solution is added to the wells. The plate is incubated at a temperature of 37° C. for 15 minutes. The RIBOGREEN® reagent is diluted 1:100 in TE buffer, and 100 μL of this solution is added to each well. The fluorescence intensity can be measured using a fluorescence plate reader (Wallac Victor 1420 Multilablel Counter; Perkin Elmer, Waltham, Mass.) at an excitation wavelength of, for example, about 480 nm and an emission wavelength of, for example, about 520 nm. The fluorescence values of the reagent blank are subtracted from that of each of the samples and the percentage of free RNA is determined by dividing the fluorescence intensity of the intact sample (without addition of Triton X-100) by the fluorescence value of the disrupted sample (caused by the addition of Triton X-100).

SMILES	EE (%)
CCCCCCCCCCCCN(CCO)CCCCCCCCCCCC(=O)OC [Compound 137, Methyl 12-(dodecyl(2-hydroxyethyl)amino)dodecanoate]	85.7%
